In PubChem BioAssay (NCI) one finds TGI data, which are given here for six compounds.

Holding throughout (experiment): NCI tumour cell line growth inhibition, 48 h
Experiment [1] has as its system BT-549 breast.
The test system of experiment [2] is SK-MEL-2 melanoma.
Experiment [3] concerns OVCAR-8 ovarian.
Experiment [4] concerns LOX IMVI melanoma.
The test system of experiment [5] is SF-295 CNS.
The test system of experiment [6] is SNB-75 CNS.
The subject of experiment [7] is CCRF-CEM leukemia.
In experiment [8] the test system is TK-10 renal.
The subject of experiment [9] is A549 NSCLC.
For experiment [10], the system named is COLO 205 colon.
The test system of experiment [11] is SF-539 CNS.
In experiment [12] the test system is SW-620 colon.
The test system of experiment [13] is HCC-2998 colon.
The test system of experiment [14] is SR leukemia.
Experiment [15] relates to SN12C renal.
For experiment [16], the system named is HS 578T breast.
Experiment [17] concerns U251 CNS.

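Interpolation was linear, between the two tested concentrations surrounding the appropriate level; five concentrations were tested over 48 hours in 96-well plates. TGI: concentration producing complete growth inhibition.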 Some results are limits rather than exact numbers.

Take `O=C(N/C(=C\c1ccccc1)c1nc2ccccc2c(=O)o1)c1ccccc1`: the TGI was 66.8 µM in experiment [1]; more than 100 µM in experiment [2]; more than 100 µM in experiment [3]; more than 100 µM in [4]; more than 100 µM in experiment [5]; more than 86.3 µM in experiment [6]. The TGI in experiment [7], in [8], in [9], in [10], in [11] and in experiment [12] was more than 100 µM in each case. For the same compound, the TGI was more than 100 µM in [13]; more than 100 µM in [14]; more than 100 µM in [15]; 75.7 µM in experiment [16]; more than 83.3 µM in [17].

Regarding `Cc1ccc(S(=O)(=O)C2=Cc3ccccc3C2(O)c2ccccc2)cc1` (configuration not stated), the TGI in experiment [1] was 63.1 µM; in experiment [2], 31.4 µM; in experiment [3], 81.2 µM; in experiment [4], 34.2 µM; in [5], 76.9 µM; in [6], more than 100 µM. Besides, the TGI in [7] is 38.1 µM; in [8], more than 100 µM; in experiment [9], more than 100 µM; in [10], 62.6 µM; in [11], 47.5 µM; in experiment [12] it was more than 100 µM. The TGI is 91.3 µM in [13]; 92 µM in experiment [14]; 34.3 µM in experiment [15]; 81.9 µM in [16]; 87.7 µM in experiment [17].

As for `CC(=O)Nc1ccc(S(=O)(=O)c2nnc(NC(C)=O)s2)cc1`, the TGI in experiment [1], in experiment [2], in experiment [3], in experiment [4], in experiment [5] and in experiment [6] was more than 100 µM in each case. Besides, the TGI in experiment [7] was more than 100 µM; in [8], more than 100 µM; in [9], more than 100 µM; in experiment [10], 0.537 µM; in experiment [11], more than 100 µM; in experiment [12] it was more than 100 µM. The TGI in experiment [13], in experiment [14], in [15], in experiment [16] and in experiment [17] was more than 100 µM each time.

For `N#Cc1ccc(C2ON=C(c3ccccc3)N2C23CC4CC(CC(C4)C2)C3)cc1` (configuration not stated), the TGI in experiment [1], in [2], in experiment [3], in [4], in experiment [5] and in [6] was more than 10 µM each time. Also, the TGI in [7], in experiment [8], in [9], in experiment [10], in [11] and in [12] was more than 10 µM in each case. Besides, the TGI in experiment [13], in experiment [14], in experiment [15], in [16] and in experiment [17] was more than 10 µM throughout.

As for `CCOC(=O)C1=C(C(=O)OCC)SC2(S1)C(C(=O)OCC)=C(C(=O)OCC)Sc1c2ssc1=O`, the TGI turned out to be 4.51 µM in [1]; 5.5 µM in experiment [2]; 3.31 µM in experiment [3]; 1.42 µM in [4]; 28.8 µM in [5]; 3.94 µM in experiment [6]. In addition, the TGI turned out to be 2.06 µM in experiment [7]; 3.16 µM in experiment [8]; 5.38 µM in [9]; 5.15 µM in [10]; 2.4 µM in experiment [11]; 1.89 µM in experiment [12]. The TGI in [13] is 5.89 µM; in [14], more than 100 µM; in [15] it was 2.48 µM; in experiment [16] it was 5.41 µM; in experiment [17], 3.95 µM.

With `Cc1cccc(N=Nc2c(C)nn(C(=O)CC(=O)Nc3ccc(Cl)cc3)c2C)c1`, the TGI was more than 100 µM in experiment [1]; more than 100 µM in experiment [2]; more than 100 µM in experiment [3]; more than 100 µM in experiment [4]; more than 100 µM in experiment [5]; 95.9 µM in experiment [6]. The TGI in experiment [7] was 98.6 µM; in [8], more than 100 µM; in experiment [9], more than 100 µM; in experiment [10], more than 100 µM; in [11], more than 100 µM; in experiment [12], more than 100 µM. Besides, the TGI is more than 100 µM in experiment [13]; 41.8 µM in experiment [14]; more than 100 µM in [15]; more than 100 µM in experiment [16]; more than 100 µM in [17].
